The source made the active and inactive calls.
Key:
[1] = biological target: NADPH oxidase 1 (Homo sapiens, UniProt Q9Y5S8); type: functional, cell-based;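 note: Cell-based assay with luminescence read-out, IC50 derived from inhibitor dose-response curves; intracellular ROS from endogenous NOX1 in intact HT29 colon cancer cells; potency of inhibitors that lower the ROS luminescence signal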
[2] = biological target: T1, RNA-binding protein pos-1 (Caenorhabditis elegans, UniProt G5EF15); experiment: inhibitors of POS-1/mex-3 RNA binding, dose response, biochemical, fluorescence polarization (AID 1964);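 note: purified POS-1 fused to maltose binding protein made in E. coli; potency of compounds blocking POS-1 binding to fluorescent RNA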
T1 sequence (G5EF15 whole entry): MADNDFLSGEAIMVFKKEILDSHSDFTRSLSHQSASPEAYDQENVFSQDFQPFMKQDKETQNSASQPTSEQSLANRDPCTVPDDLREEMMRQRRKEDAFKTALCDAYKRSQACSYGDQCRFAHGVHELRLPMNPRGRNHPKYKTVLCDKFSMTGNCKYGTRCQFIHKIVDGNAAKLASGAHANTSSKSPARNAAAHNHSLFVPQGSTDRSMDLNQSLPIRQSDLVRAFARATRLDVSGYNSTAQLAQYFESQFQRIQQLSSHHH

[3] = biological target: T2, SUMO-activating enzyme (Homo sapiens, UniProt Q9UBT2); experiment: inhibitors of in vitro SUMOylation cascade, primary screen, biochemical, HTRF, uHTS (AID 2006); type: protein-complex assay
[4] = biological target: T3, Zinc finger protein mex-5 (Caenorhabditis elegans, UniProt Q9XUB2); experiment: MEX-5/TCR-2 RNA interaction inhibitors, dose response, biochemical, C. elegans, fluorescence polarization (AID 1960)
T3 sequence (Q9XUB2 whole entry): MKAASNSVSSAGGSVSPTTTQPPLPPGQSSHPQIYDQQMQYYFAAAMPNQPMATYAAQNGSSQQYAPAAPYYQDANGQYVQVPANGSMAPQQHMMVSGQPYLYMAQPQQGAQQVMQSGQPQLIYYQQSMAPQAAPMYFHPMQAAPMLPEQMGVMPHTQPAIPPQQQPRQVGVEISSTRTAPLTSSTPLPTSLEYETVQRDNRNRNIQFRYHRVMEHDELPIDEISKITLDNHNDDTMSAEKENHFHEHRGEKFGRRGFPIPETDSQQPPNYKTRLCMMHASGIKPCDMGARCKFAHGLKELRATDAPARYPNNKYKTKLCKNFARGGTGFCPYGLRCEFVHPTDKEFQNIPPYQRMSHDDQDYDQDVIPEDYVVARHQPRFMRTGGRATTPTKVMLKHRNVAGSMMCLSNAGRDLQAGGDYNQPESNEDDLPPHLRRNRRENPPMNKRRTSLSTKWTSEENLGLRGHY

[5] = enhancers of respiration in Yfh1-depleted yeast, dose response, Friedreich's ataxia, plus single-dose screen (AID 1465); type: functional;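 note: yeast depleted of Yfh1p frataxin homolog grown on glycerol needing respiration; WST-1 tetrazolium dye reduction as measure of cellular dehydrogenase metabolic activity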
[6] = biological target: T2, SUMO-activating enzyme; experiment: SUMOylation inhibitor hit validation, confirmation, SUMOylation inhibitor project, biochemical, AlphaScreen (AID 2018); type: functional
[7] = biological target: Bcl-2-like protein 10 (Homo sapiens, UniProt Q9HD36); experiment: Biochemical TR3 FP assay of Bcl-B inhibitor potency, EC50 (AID 1243); type: functional
[8] = biological target: Peroxisome proliferator-activated receptor gamma/Nuclear receptor coactivator 1 (Homo sapiens, UniProt P37231); experiment: TR-FRET dose response biochemical High Throughput Screening assay for agonists of the steroid receptor coactivator 1 (SRC-1) recruitment by the peroxisome proliferator-activated receptor gamma (PPAR gamma): non-selective agonists. [Related pubchem assays (depositor defined):AID1300, AID1808, AID504735, AID631]; type: protein assay
[9] = biological target: Mothers against decapentaplegic homolog 3 (Homo sapiens, UniProt P84022); experiment: SMAD3 transcription factor inhibitors, dose response (AID 715); type: functional
[10] = biological target: Peroxisome proliferator-activated receptor gamma/Nuclear receptor coactivator 2 (Homo sapiens, UniProt P37231); experiment: (§1) TR-FRET dose response biochemical High Throughput Screening assay for agonists of the steroid receptor coactivator 2 (SRC-2) recruitment by the peroxisome proliferator-activated receptor gamma (PPAR gamma): non-selective agonists. [Related pubchem assays: 1297, 1032 ]; type: functional
[11] = biological target: Peroxisome proliferator-activated receptor gamma/Nuclear receptor coactivator 3 (Homo sapiens, UniProt P37231); experiment: as §1, with “3 (SRC-3)” for “2 (SRC-2)”, “1301 (Confirmation screen.), 1048 (Primary screen.)]” for “1297, 1032 ]”; type: functional
[12] = biological target: Aryl hydrocarbon receptor (Homo sapiens, UniProt P35869); experiment: Luminescence-based cell-based high throughput dose response assay for activators of the Aryl Hydrocarbon Receptor (AHR). [Related pubchem assays: 2796 (Primary screen (AHR activators in singlicate)), 2845 (Confirmation screen (AHR activators in triplicate)), 434939 (Counterscreen (PXR activators in triplicate)), 2804 (Summary (AHR activators))]; type: ADME
[13] = biological target: Sphingosine 1-phosphate receptor 2 (Homo sapiens, UniProt O95136); experiment: Dose Response Cell Based Assay for Agonists of the S1P2 Receptor of Purchased Analogues. [Related pubchem assays: 729, 843, 854, 736 ]; type: functional
[14] = biological target: T4, Estrogen receptor beta (Homo sapiens, UniProt Q92731);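 note: recombinant ER-beta bound to coactivator SRC1 peptide in presence of estradiol agonist; inhibitors block coactivator peptide binding and lower the FRET signal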
[15] = biological target: T4, Estrogen receptor beta; experiment: ERβ–SRC-3 coactivator interaction inhibitors, confirmation, orthogonal assay, biochemical, ELISA, streptavidin-HRP readout (AID 1060)
[16] = system: Vero; experiment: host cell cytotoxicity of antiviral hits, dose response, cytotoxicity control for West Nile virus antiviral project, secondary assay (AID 1650); type: functional; details: Chlorocebus sabaeus
[17] = biological target: T5, DNA repair protein RAD52 homolog (Homo sapiens, UniProt P43351); type: functional, biochemical
T5 sequence (P43351 whole entry): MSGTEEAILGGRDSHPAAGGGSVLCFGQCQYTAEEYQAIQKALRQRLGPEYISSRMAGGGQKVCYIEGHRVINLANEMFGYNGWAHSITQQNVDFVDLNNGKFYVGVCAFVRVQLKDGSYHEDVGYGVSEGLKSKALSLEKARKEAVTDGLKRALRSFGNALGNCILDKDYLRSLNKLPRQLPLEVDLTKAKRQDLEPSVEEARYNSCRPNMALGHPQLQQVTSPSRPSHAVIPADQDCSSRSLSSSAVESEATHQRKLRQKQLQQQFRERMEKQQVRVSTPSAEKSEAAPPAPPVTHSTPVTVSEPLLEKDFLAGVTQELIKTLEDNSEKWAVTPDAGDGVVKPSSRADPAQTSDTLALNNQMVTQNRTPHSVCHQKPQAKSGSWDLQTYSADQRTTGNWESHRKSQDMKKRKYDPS

[18] = biological target: T6, DNA repair and recombination protein RAD54-like (Homo sapiens, UniProt Q92698); experiment: inhibitors of human RAD54 branch migration, confirmation, biochemical, fluorescence, cherry-picked samples, dose series (AID 651657); type: functional
T6 sequence (Q92698 whole entry): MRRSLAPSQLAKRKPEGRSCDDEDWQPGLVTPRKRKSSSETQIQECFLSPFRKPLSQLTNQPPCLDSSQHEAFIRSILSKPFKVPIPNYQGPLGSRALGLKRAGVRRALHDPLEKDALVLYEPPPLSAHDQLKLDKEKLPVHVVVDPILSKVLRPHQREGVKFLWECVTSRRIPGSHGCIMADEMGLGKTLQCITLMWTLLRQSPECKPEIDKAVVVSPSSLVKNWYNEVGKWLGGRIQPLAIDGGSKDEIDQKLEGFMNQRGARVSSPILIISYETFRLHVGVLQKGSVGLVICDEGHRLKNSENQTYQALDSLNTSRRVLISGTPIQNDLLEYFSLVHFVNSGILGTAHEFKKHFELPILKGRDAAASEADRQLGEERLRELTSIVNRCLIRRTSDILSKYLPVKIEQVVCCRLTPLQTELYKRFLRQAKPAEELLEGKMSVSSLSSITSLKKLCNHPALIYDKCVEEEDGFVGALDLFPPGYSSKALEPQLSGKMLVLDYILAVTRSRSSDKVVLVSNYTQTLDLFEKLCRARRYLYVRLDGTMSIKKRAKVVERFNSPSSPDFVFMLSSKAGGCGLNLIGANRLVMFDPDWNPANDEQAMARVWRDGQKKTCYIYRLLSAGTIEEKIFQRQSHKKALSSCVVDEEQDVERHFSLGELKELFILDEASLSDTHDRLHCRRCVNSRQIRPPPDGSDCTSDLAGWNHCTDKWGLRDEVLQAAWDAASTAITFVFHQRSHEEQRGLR

[19] = biological target: T7, CAAX prenyl protease 2 (Saccharomyces cerevisiae S288c, UniProt Q03530); type: biochemical
T7 sequence (Q03530 whole entry): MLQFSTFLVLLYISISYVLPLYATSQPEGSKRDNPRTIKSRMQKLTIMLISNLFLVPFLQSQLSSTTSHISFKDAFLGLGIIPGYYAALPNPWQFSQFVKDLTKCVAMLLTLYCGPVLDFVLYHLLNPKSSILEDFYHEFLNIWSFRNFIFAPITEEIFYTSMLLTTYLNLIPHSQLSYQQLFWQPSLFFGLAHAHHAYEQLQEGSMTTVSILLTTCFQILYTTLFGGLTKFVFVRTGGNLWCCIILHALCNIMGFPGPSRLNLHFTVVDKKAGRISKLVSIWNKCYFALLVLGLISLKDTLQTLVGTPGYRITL

[20] = system: Vero; experiment: West Nile virus antiviral activity, cell-based, CPE readout (AID 1621); type: functional; details: Chlorocebus sabaeus
[21] = biological target: Trypsin (Sus scrofa, UniProt P00761); experiment: porcine trypsin inhibitors, dose response, selectivity assay for Rce1 protease inhibitor project, biochemical, quenched peptide fluorescence, cherry-pick (AID 488789)
[22] = biological target: T8, Streptokinase A (Streptococcus pyogenes serotype M1, UniProt P10520); experiment: S. pyogenes streptokinase expression inhibitors, potency, dose response, plasminogen activation absorbance, OD405 (AID 1914); type: functional, Streptococcus pyogenes M1 GAS;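 note: secreted streptokinase activity via plasminogen activation per viability signal from cell pellet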
T8 sequence (P10520 whole entry): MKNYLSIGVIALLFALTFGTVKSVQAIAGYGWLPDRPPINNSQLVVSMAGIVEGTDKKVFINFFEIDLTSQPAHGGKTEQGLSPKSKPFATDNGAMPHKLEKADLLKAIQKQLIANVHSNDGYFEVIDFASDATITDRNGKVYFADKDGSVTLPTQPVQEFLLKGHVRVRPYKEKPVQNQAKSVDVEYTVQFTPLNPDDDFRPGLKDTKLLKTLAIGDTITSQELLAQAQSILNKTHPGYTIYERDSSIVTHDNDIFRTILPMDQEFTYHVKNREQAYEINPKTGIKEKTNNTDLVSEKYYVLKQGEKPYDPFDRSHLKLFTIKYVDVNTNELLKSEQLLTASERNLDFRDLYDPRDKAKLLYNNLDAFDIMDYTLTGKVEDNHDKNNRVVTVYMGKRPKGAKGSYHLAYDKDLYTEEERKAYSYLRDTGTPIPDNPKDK

[23] = system: Streptococcus; experiment: Group A Streptococcus viability loss, dose response, counter-screen for streptokinase expression inhibitor project, luminescence, BacTiterGlo (AID 1915); type: functional, organism-based;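 note: potency for reduction of bacterial viability or growth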
[24] = system: Streptococcus sp. 'group A'; experiment: growth inhibition of control SK(-) GAS strain, dose response, counter-screen for streptokinase expression inhibitor project, luminescence, kanamycin, BacTiterGlo, confirmation (AID 1900); type: functional, organism-based
[25] = biological target: Photoreceptor-specific nuclear receptor (Homo sapiens, UniProt Q9Y5X4); experiment: NR2E3 inverse agonists, dose response, biochemical, TR-FRET (AID 463256); type: functional
[26] = biological target: Peroxisome proliferator-activated receptor gamma/Nuclear receptor corepressor 2 (Homo sapiens, UniProt P37231+Q9Y618); experiment: Counterscreen for NR2E3 inverse agonists: TR-FRET-based biochemical high throughput dose response assay to identify inverse agonists of the interaction between peroxisome proliferator-activated receptor gamma (PPARg) and nuclear receptor co-repressor 2 (NCOR2).; type: functional
[27] = biological target: Cytochrome P450 2C19 (Homo sapiens, UniProt P33261); experiment: qHTS Assay for Inhibitors and Substrates of Cytochrome P450 2C19. [Related pubchem assays: 410 ]; type: ADME; details: read-out: Potency
[28] = biological target: 5-hydroxytryptamine receptor 1A (Homo sapiens, UniProt P08908); type: functional
Chain of 5-hydroxytryptamine receptor 1A (P08908 whole entry): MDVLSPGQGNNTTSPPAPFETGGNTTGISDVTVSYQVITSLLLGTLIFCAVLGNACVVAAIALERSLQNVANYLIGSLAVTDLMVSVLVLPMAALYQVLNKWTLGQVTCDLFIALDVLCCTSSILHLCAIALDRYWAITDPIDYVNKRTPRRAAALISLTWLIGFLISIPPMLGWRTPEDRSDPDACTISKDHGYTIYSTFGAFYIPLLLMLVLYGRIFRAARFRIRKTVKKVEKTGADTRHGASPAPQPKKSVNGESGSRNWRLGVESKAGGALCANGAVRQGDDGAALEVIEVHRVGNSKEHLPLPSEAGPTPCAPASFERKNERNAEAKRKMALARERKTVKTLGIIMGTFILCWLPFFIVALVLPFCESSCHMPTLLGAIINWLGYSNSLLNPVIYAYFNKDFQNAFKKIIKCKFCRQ

T2 sequence (Q9UBE0 whole entry): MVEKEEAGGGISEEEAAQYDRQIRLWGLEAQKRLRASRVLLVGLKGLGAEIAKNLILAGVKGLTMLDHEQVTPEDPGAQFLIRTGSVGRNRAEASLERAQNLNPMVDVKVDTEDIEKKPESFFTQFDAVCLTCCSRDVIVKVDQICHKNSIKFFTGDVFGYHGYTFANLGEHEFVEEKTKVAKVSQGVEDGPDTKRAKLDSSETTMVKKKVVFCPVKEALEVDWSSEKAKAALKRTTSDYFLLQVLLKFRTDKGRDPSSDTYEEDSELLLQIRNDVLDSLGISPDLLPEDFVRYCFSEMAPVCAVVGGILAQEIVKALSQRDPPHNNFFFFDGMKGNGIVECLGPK
T2 sequence (Q9UBT2 whole entry): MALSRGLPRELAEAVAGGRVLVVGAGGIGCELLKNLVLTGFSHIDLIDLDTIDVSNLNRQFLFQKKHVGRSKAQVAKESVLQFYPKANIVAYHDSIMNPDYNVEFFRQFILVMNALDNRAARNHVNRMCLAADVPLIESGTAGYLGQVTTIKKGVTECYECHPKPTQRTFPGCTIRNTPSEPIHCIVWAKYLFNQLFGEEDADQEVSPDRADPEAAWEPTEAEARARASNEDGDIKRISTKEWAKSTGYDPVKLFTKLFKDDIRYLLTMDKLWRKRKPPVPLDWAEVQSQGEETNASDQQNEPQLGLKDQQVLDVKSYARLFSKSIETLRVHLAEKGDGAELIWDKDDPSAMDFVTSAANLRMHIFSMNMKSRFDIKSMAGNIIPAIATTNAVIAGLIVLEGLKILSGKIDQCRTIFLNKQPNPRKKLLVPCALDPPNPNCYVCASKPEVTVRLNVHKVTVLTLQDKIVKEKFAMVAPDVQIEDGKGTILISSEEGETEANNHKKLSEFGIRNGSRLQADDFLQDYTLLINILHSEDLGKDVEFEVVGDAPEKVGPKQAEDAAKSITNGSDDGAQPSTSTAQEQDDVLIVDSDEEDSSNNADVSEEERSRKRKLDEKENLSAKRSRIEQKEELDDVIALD
T4 sequence (Q92731 whole entry): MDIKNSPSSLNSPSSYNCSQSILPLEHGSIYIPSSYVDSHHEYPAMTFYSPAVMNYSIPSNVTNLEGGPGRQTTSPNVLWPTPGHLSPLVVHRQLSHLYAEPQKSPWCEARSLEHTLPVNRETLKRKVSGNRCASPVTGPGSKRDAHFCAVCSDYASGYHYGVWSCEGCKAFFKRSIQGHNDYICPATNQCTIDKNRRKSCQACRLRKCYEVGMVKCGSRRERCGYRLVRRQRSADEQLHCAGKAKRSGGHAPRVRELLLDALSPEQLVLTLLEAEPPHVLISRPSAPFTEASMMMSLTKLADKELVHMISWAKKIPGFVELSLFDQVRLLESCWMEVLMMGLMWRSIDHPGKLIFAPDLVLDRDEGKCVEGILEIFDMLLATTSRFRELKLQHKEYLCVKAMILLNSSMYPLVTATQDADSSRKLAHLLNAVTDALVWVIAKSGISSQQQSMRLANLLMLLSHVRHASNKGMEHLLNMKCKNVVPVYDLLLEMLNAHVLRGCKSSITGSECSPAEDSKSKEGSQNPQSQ
Chain of Mothers against decapentaplegic homolog 3 (P84022 whole entry): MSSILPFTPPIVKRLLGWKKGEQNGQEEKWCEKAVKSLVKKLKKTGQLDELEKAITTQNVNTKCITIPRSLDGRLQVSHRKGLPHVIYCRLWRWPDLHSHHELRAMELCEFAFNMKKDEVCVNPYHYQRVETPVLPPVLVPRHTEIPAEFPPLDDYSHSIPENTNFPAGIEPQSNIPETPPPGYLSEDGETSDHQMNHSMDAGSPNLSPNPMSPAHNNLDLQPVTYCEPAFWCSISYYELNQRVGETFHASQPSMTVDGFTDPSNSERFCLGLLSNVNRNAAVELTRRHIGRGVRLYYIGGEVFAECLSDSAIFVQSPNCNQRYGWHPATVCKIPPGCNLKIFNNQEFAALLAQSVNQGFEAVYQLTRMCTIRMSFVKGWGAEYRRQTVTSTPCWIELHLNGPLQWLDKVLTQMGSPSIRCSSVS
Chain of Photoreceptor-specific nuclear receptor (Q9Y5X4 whole entry): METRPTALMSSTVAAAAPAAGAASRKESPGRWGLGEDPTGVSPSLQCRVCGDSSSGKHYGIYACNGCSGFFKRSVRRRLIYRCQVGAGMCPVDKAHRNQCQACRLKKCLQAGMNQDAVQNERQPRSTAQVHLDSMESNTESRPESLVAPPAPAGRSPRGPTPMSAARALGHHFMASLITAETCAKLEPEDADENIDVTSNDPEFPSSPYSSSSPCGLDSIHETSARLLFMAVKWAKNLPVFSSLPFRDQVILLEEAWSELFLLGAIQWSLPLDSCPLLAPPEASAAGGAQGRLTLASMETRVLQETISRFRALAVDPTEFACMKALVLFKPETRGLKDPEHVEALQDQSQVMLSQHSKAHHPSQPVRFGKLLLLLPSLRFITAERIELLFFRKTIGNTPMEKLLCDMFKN
Chain of Trypsin (P00761 whole entry): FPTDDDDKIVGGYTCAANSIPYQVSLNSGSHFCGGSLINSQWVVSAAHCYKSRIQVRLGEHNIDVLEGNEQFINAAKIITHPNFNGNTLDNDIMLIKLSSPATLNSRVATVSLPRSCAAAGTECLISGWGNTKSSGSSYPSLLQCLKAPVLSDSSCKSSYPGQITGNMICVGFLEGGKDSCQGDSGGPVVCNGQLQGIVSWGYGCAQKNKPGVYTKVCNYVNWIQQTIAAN
Chain of Aryl hydrocarbon receptor (P35869 whole entry): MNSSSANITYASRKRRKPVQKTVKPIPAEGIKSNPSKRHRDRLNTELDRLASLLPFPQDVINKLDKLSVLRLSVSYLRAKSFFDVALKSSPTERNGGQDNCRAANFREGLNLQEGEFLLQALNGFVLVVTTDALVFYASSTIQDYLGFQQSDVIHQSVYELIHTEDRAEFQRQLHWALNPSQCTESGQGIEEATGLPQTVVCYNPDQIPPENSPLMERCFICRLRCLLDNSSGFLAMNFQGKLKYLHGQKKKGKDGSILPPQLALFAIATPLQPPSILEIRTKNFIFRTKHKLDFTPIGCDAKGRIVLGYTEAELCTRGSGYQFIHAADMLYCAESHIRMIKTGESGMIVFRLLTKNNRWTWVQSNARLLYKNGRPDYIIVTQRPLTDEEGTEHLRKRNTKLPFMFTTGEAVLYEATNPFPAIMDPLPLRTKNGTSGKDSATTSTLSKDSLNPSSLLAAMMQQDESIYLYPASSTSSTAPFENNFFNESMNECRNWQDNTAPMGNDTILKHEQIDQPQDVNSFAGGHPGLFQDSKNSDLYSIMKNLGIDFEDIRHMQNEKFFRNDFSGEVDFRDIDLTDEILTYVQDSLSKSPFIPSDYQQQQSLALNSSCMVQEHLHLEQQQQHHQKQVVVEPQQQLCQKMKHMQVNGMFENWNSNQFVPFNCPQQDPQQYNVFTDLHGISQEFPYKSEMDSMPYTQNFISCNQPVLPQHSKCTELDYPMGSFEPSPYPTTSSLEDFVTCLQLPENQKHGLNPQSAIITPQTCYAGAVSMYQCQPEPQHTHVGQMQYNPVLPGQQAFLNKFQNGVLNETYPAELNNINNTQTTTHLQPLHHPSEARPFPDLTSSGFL
Chain of Cytochrome P450 2C19 (P33261 whole entry): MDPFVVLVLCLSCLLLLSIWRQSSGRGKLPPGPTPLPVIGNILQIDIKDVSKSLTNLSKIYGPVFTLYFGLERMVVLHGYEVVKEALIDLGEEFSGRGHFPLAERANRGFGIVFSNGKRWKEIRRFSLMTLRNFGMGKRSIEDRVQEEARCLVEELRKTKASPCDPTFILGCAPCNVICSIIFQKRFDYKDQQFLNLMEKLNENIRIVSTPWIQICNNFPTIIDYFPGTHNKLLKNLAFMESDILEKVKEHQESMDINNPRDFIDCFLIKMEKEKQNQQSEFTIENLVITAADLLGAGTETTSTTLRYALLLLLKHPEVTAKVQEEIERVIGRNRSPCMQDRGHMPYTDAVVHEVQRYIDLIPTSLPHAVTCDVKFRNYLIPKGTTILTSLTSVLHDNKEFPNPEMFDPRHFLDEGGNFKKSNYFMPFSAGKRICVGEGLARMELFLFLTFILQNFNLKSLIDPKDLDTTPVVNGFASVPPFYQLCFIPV
Chain of Bcl-2-like protein 10 (Q9HD36 whole entry): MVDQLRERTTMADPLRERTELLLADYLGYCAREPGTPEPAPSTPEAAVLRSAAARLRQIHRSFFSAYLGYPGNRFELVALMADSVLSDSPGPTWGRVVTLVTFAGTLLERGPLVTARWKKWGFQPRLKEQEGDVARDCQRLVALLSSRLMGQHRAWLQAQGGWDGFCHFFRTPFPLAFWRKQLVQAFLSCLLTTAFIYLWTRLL
Chain of Sphingosine 1-phosphate receptor 2 (O95136 whole entry): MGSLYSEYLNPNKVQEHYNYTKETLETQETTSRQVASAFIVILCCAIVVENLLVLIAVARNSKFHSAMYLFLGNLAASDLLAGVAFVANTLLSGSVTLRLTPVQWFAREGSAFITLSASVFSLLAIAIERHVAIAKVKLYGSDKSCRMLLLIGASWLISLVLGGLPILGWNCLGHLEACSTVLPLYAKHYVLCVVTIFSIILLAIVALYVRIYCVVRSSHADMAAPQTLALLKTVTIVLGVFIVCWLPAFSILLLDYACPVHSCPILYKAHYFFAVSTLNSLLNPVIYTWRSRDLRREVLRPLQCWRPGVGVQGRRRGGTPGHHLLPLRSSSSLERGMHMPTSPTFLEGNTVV

C=C(NNc1c(Cl)c(Cl)nc(C(=O)O)c1Cl)c1ccc2c(c1)OCCO2
IC50 [1]: > 17 µM (not active)

COc1cc([N+](=O)[O-])cc(/C=N/NC(=O)CC#N)c1O
EC50 [2]: > 300 µM (inconclusive)
IC50 [3]: 8.76 µM (active)
EC50 [4]: > 300 µM (inconclusive)
EC50 [5]: > 100 µM (active)
IC50 [6]: 1.15 µM (active)

Nc1ccc(Oc2ccc(N)c(N)c2)cc1N
EC50 [7]: 5.37 µM (active)

CCN1CCCC1CNC(=O)CSc1cc(=O)n(C)c2cc(Cl)ccc12 (stereo not drawn)
EC50 [8]: > 79.4 µM (inactive)
IC50 [9]: 8.7 µM (active)
EC50 [10]: > 79.4 µM (not active)
EC50 [11]: > 79.4 µM (not active)

Cc1nc(C)c(C(=O)N/N=C/c2c[nH]c3ccccc23)s1
EC50 [12]: > 91.7 µM (not active)

Cc1cc(C(=O)CN2C(=O)C(=O)N(C3CCCC3)C2=O)c(C)n1Cc1ccccc1
EC50 [13]: > 30 µM (not active)

O=C(c1cc2ncc(Br)cn2n1)N1CCOCC1
IC50 [14]: 9.16 µM (active)
IC50 [15]: 23 µM (not active)

CCN(CC)CCCNC(=O)c1cc2c(-c3cccc(OC)c3)nn(C)c2s1
CC50 [16]: > 100 µM (active)
AC50 [17]: 6.07 µM (active)
AC50 [18]: 34.1 µM (active)
AC50 [19]: 77.8 µM (active)
IC50 [20]: 19.9 µM (active)
AC50 [21]: 9.95 µM (active)

O=C(COc1ccc(Cl)cc1Cl)Nc1ccc(-c2ccc(N3CCOCC3)nn2)cc1
EC50 [22]: > 150 µM (not active)
EC50 [23]: > 150 µM (not active)
EC50 [24]: > 150 µM (not active)
IC50 [25]: 1.43 µM (active)
IC50 [26]: 1.51 µM (active)

CC(C)C[C@H](NC(=O)[C@@H](NC(=O)N[C@@H](Cc1ccccc1)C(=O)O)[C@H]1CCN=C(N)N1)C(=O)N[C@H](C=O)Cc1ccccc1
AC50 [27]: 10 µM (inconclusive)

Cc1c(CN2CCN(c3cccc(C(F)(F)F)c3)CC2)c(=O)n(-c2ccccc2)n1C
EC50 [28]: > 50 µM (not active)

From ChEMBL document CHEMBL1201862, “PubChem BioAssay data set” (2004)
